Key:
Assay in all cases: relative viability (nuclei count vs DMSO), 5 days (fraction); higher = more cells survive
NCI-H3122 = system: NCI-H3122
In short: (§1)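 Relative viability equals treated-well nuclei counts divided by vehicle-well nuclei counts. Counts came from 4× images of lung cancer cell lines grown in 1536-well plates for 5 days after pin-tool dosing on the day after seeding. Dosing used one drug alone or a fixed anchor-drug dose plus five library-drug doses (not always all listed) in √10 steps, and values are medians of duplicate plates.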

NCI-H727 = system: NCI-H727
In short: as §1

NCI-H838 = system: NCI-H838
In short: as §1

NCI-H23 = system: NCI-H23
In short: as §1

NCI-H1993 = system: NCI-H1993
In short: as §1

EMC-BAC-2 = system: EMC-BAC-2
In short: as §1

NCI-H596 = system: NCI-H596
In short: as §1

NCI-H647 = system: NCI-H647
In short: as §1

BEN = system: BEN
In short: as §1

NCI-H2087 = system: NCI-H2087
In short: as §1

NCI-H441 = system: NCI-H441
In short: as §1

NCI-H2347 = system: NCI-H2347
In short: as §1

HCC-44 = system: HCC-44
In short: as §1

NCI-H1395 = system: NCI-H1395
In short: as §1

NCI-H2126 = system: NCI-H2126
In short: as §1

NCI-H2023 = system: NCI-H2023
In short: as §1

201T = system: 201T
In short: as §1

LOU-NH91 = system: LOU-NH91
In short: as §1

HARA = system: HARA
In short: as §1

SMILES: CCN(CC)CCCCNc1ncc2cc(-c3cc(OC)cc(OC)c3)c(NC(=O)NC(C)(C)C)nc2n1 + CC1(C)CCC(c2ccc(Cl)cc2)=C(CN2CCN(c3ccc(C(=O)NS(=O)(=O)c4ccc(N[C@H](CCN5CCOCC5)CSc5ccccc5)c(S(=O)(=O)C(F)(F)F)c4)cc3)CC2)C1 [Navitoclax] (partner 0.5 µM)
- relative viability (NCI-H3122; first compound 0.01 µM): 1.02
- relative viability (NCI-H3122; first compound 0.03162 µM): 1.06
- relative viability (NCI-H3122; first compound 0.1 µM): 1.06
- relative viability (NCI-H3122; first compound 0.3162 µM): 1.03
- relative viability (NCI-H3122; first compound 1 µM): 1.07
- relative viability (NCI-H727; first compound 0.01 µM): 0.443
- relative viability (NCI-H727; first compound 0.03162 µM): 0.336
- relative viability (NCI-H727; first compound 0.1 µM): 0.428
- relative viability (NCI-H727; first compound 0.3162 µM): 0.454
- relative viability (NCI-H727; first compound 1 µM): 0.387
- relative viability (NCI-H838; first compound 0.01 µM): 1.18
- relative viability (NCI-H838; first compound 0.03162 µM): 1.12
- relative viability (NCI-H838; first compound 0.1 µM): 1.44
- relative viability (NCI-H838; first compound 0.3162 µM): 1.07
- relative viability (NCI-H838; first compound 1 µM): 0.809
- relative viability (NCI-H23; first compound 0.01 µM): 0.744
- relative viability (NCI-H23; first compound 0.03162 µM): 0.85
- relative viability (NCI-H23; first compound 0.1 µM): 1.09
- relative viability (NCI-H23; first compound 0.3162 µM): 0.921
- relative viability (NCI-H23; first compound 1 µM): 0.843
- relative viability (NCI-H1993; first compound 0.01 µM): 0.904
- relative viability (NCI-H1993; first compound 0.03162 µM): 0.954
- relative viability (NCI-H1993; first compound 0.1 µM): 0.963
- relative viability (NCI-H1993; first compound 0.3162 µM): 1.07
- relative viability (NCI-H1993; first compound 1 µM): 0.895
- relative viability (EMC-BAC-2; first compound 0.01 µM): 1.38
- relative viability (EMC-BAC-2; first compound 0.03162 µM): 1.24
- relative viability (EMC-BAC-2; first compound 0.1 µM): 1.24
- relative viability (EMC-BAC-2; first compound 0.3162 µM): 1.28
- relative viability (EMC-BAC-2; first compound 1 µM): 0.899
- relative viability (NCI-H596; first compound 0.01 µM): 0.912
- relative viability (NCI-H596; first compound 0.03162 µM): 1.02
- relative viability (NCI-H596; first compound 0.1 µM): 0.919
- relative viability (NCI-H596; first compound 0.3162 µM): 0.797
- relative viability (NCI-H596; first compound 1 µM): 0.656
- relative viability (NCI-H647; first compound 0.01 µM): 1.12
- relative viability (NCI-H647; first compound 0.03162 µM): 1.14
- relative viability (NCI-H647; first compound 0.1 µM): 1.41
- relative viability (NCI-H647; first compound 0.3162 µM): 1.21
- relative viability (NCI-H647; first compound 1 µM): 0.929
- relative viability (BEN; first compound 0.01 µM): 0.0624
- relative viability (BEN; first compound 0.03162 µM): 0.0641
- relative viability (BEN; first compound 0.1 µM): 0.0454
- relative viability (BEN; first compound 0.3162 µM): 0.0573
- relative viability (BEN; first compound 1 µM): 0.0385
- relative viability (NCI-H2087; first compound 0.01 µM): 1.15
- relative viability (NCI-H2087; first compound 0.03162 µM): 1.12
- relative viability (NCI-H2087; first compound 0.1 µM): 1.35
- relative viability (NCI-H2087; first compound 0.3162 µM): 1.23
- relative viability (NCI-H2087; first compound 1 µM): 0.986
- relative viability (NCI-H441; first compound 0.01 µM): 0.547
- relative viability (NCI-H441; first compound 0.03162 µM): 0.714
- relative viability (NCI-H441; first compound 0.1 µM): 1.2
- relative viability (NCI-H441; first compound 0.3162 µM): 0.827
- relative viability (NCI-H441; first compound 1 µM): 0.618
- relative viability (NCI-H2347; first compound 0.01 µM): 0.817
- relative viability (NCI-H2347; first compound 0.03162 µM): 0.823
- relative viability (NCI-H2347; first compound 0.1 µM): 0.762
- relative viability (NCI-H2347; first compound 0.3162 µM): 0.833
- relative viability (NCI-H2347; first compound 1 µM): 0.676
- relative viability (HCC-44; first compound 0.01 µM): 1.01
- relative viability (HCC-44; first compound 0.03162 µM): 0.997
- relative viability (HCC-44; first compound 0.1 µM): 1.02
- relative viability (HCC-44; first compound 0.3162 µM): 1.1
- relative viability (HCC-44; first compound 1 µM): 0.937
- relative viability (NCI-H1395; first compound 0.03162 µM): 1.1
- relative viability (NCI-H1395; first compound 0.1 µM): 1.09
- relative viability (NCI-H1395; first compound 0.3162 µM): 1.17
- relative viability (NCI-H1395; first compound 1 µM): 0.751
- relative viability (NCI-H2126; first compound 0.01 µM): 0.904
- relative viability (NCI-H2126; first compound 0.03162 µM): 0.845
- relative viability (NCI-H2126; first compound 0.1 µM): 0.916
- relative viability (NCI-H2126; first compound 0.3162 µM): 0.927
- relative viability (NCI-H2126; first compound 1 µM): 0.828
- relative viability (NCI-H2023; first compound 0.01 µM): 1.04
- relative viability (NCI-H2023; first compound 0.03162 µM): 0.997
- relative viability (NCI-H2023; first compound 0.1 µM): 1
- relative viability (NCI-H2023; first compound 0.3162 µM): 1.04
- relative viability (NCI-H2023; first compound 1 µM): 0.823
- relative viability (201T; first compound 0.01 µM): 1.17
- relative viability (201T; first compound 0.03162 µM): 1.21
- relative viability (201T; first compound 0.1 µM): 1.24
- relative viability (201T; first compound 0.3162 µM): 1.23
- relative viability (201T; first compound 1 µM): 1.19
- relative viability (LOU-NH91; first compound 0.01 µM): 0.611
- relative viability (LOU-NH91; first compound 0.03162 µM): 0.674
- relative viability (LOU-NH91; first compound 0.1 µM): 0.718
- relative viability (LOU-NH91; first compound 0.3162 µM): 0.795
- relative viability (LOU-NH91; first compound 1 µM): 0.722
- relative viability (HARA; first compound 0.01 µM): 1.19
- relative viability (HARA; first compound 0.03162 µM): 1.15
- relative viability (HARA; first compound 0.1 µM): 1.29
- relative viability (HARA; first compound 0.3162 µM): 1.14
- relative viability (HARA; first compound 1 µM): 1.04
